Laboratory results published in ChEMBL document CHEMBL4261647, “Synthesis, DNA and protein interactions and human topoisomerase inhibition of novel Spiroacridine derivatives” (Bioorg Med Chem, 2018).

Columns and labels:
Albumin [1] = target: T1, Albumin (Bos taurus, UniProt P02769); assay: Binding affinity to bovine serum albumin assessed as Stern-Volmer quenching constant by fluorescence spectroscopic analysis; format: ADME; conditions: cattle, isolated protein
Albumin [2] = target: T1, Albumin; assay: Binding affinity to bovine serum albumin assessed as decrease in protein fluorescence intensity up to 10 uM by fluorescence spectroscopic analysis; format: ADME; set-up: scale not given: the % may be the effect or the level left; conditions: cattle, isolated protein
Calf thymus DNA [3] = assay: Binding affinity to calf thymus DNA by UV-vis absorption spectral analysis; format: nucleic-acid assay; conditions: Bos taurus
Calf thymus DNA [4] = assay: Binding affinity to calf thymus DNA assessed as hypochromic effect up to 10 uM by UV-vis absorption spectral analysis; format: nucleic-acid assay; conditions: Bos taurus
[5] = target: DNA topoisomerase 2-alpha (Homo sapiens) (UniProt P11388); assay: Inhibition of recombinant human topoisomerase 2alpha assessed as decrease in relaxation of supercoiled pUC19 DNA at 100 uM after 30 mins by ethidium bromide staining based agarose gel electrophoresis relative to control
Chain of DNA topoisomerase 2-alpha (Homo sapiens) (P11388 whole entry): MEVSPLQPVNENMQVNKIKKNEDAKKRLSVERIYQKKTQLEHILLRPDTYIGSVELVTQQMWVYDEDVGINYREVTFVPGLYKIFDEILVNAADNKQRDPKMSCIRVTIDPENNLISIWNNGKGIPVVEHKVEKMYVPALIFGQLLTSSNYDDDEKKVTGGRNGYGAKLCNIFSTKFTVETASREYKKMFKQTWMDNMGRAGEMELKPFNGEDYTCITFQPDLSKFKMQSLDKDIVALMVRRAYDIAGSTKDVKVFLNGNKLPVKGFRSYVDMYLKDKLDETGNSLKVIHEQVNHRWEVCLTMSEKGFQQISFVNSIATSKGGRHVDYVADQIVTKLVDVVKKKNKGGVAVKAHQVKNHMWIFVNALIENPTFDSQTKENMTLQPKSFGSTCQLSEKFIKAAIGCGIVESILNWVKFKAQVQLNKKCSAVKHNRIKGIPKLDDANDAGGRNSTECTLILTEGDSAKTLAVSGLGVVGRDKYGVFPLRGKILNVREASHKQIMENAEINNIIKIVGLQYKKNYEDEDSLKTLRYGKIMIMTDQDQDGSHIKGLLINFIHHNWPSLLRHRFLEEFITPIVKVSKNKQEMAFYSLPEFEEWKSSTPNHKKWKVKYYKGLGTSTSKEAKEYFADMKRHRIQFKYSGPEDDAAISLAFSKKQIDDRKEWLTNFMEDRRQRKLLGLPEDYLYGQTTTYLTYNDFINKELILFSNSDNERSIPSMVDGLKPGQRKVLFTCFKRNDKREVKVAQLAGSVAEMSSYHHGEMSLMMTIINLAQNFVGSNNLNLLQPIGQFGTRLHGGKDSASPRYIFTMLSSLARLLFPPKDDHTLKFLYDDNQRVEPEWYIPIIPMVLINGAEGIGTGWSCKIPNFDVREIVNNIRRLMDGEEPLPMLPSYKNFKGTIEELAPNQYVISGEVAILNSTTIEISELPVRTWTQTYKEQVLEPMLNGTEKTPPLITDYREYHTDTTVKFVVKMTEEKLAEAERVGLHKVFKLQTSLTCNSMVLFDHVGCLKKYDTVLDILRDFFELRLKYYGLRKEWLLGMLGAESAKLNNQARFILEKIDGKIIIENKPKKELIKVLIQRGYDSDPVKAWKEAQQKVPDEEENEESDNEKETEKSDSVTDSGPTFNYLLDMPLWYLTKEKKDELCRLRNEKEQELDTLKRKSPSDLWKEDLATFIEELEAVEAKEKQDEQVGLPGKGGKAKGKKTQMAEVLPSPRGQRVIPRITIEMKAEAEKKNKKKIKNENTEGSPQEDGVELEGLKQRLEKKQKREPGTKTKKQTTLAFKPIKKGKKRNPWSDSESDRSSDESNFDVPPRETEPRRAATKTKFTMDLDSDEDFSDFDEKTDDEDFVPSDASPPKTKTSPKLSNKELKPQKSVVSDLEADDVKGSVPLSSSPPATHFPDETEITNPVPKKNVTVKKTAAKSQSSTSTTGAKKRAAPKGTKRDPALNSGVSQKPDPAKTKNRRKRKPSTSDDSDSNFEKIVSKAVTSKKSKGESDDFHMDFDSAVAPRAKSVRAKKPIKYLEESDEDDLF

Calf thymus DNA [6] = assay: Binding affinity to calf thymus DNA assessed as hyperchromic effect up to 10 uM by UV-vis absorption spectral analysis; format: nucleic-acid assay; conditions: Bos taurus

T1 sequence (P02769 whole entry): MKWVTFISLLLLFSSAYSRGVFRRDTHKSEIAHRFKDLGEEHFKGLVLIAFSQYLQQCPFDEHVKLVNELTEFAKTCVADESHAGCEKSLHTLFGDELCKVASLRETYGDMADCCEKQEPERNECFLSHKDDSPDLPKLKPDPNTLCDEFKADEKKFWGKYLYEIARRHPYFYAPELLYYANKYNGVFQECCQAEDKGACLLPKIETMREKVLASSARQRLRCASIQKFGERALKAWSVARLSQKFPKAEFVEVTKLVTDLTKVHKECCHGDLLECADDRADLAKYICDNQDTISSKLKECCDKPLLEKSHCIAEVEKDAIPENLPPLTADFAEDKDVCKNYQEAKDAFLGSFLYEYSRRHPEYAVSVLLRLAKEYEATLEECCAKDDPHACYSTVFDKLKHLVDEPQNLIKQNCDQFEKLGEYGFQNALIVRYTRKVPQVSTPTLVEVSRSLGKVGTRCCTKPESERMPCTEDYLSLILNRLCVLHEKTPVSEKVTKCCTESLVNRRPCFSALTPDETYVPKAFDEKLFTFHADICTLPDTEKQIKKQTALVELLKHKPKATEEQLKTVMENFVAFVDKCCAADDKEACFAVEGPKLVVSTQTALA

| Structure (SMILES) | KSV (Albumin [1]) [×10⁴ /M] | Activity (Albumin [2]) [%] | Kb (Calf thymus DNA [3]) | Activity (Calf thymus DNA [4]) [%] | inhibition [5] [%] | Activity (Calf thymus DNA [6]) [%] |
| --- | --- | --- | --- | --- | --- | --- |
| N#CC1=CC2(c3ccccc3Nc3ccccc32)N(/N=C/c2ccc(Cl)cc2)C1=O | 3.4 | 60.3 | 7.6 ×10⁵ /M | 44.3 | 84.3 |  |
| N#CC1=CC2(c3ccccc3Nc3ccccc32)N(/N=C/c2ccc([N+](=O)[O-])cc2)C1=O | 3.1 | 71.74 | 4.8 ×10⁶ /M | 13.5 | 43.7 |  |
| N#CC1=CC2(c3ccccc3Nc3ccccc32)N(/N=C/c2ccccc2)C1=O |  |  |  |  | 9.78 |  |
| COc1ccc(Br)cc1/C=N/N1C(=O)C(C#N)=CC12c1ccccc1Nc1ccccc12 | 1.9 | 42.53 | 6.7 ×10⁵ /M | 100 | 1.64 |  |
| CN(C)c1ccc(/C=N/N2C(=O)C(C#N)=CC23c2ccccc2Nc2ccccc23)cc1 | 2.7 | 54.95 | 1.1 ×10⁸ /M | 7.14 | 1.64 |  |
| COc1ccc(/C=N/N2C(=O)C(C#N)=CC23c2ccccc2Nc2ccccc23)cc1 |  |  |  |  | 88.1 |  |
| N#CC1=CC2(c3ccccc3Nc3ccccc32)N(/N=C/c2ccc(F)cc2)C1=O | 2.3 | 55.11 | 1.5 ×10⁵ /M |  | 70.7 | 45.8 |
| CCOc1cc(/C=N/N2C(=O)C(C#N)=CC23c2ccccc2Nc2ccccc23)ccc1O | 2.3 | 58.57 | 2.6 ×10⁵ /M | 14.4 | 20.6 |  |
| N#CC1=CC2(c3ccccc3Nc3ccccc32)N(/N=C/c2ccc(Cl)cc2Cl)C1=O | 2 | 48.01 | 8.2 ×10⁵ /M |  | 61.7 | 65.3 |
| N#CC1=CC2(c3ccccc3Nc3ccccc32)N(/N=C/c2ccccc2[N+](=O)[O-])C1=O | 2.3 | 51.46 | 3.7 ×10⁵ /M | 8.06 | 1.64 |  |
| N#CC1=CC2(c3ccccc3Nc3ccccc32)N(/N=C/c2c(Cl)cccc2Cl)C1=O | 2.1 | 45.77 | 1.6 ×10⁵ /M | 30 | 15.9 |  |
